According to patent US20060029967A1, “Assay for nitrous oxide neurologic syndrome” (priority 2002, published 2006):

Tests used:
methionine synthase [1] = target: methionine synthase (Rattus norvegicus, UniProt Q9Z2Q4); settings: rats exposed to nitrous oxide; cited from earlier work
methionine synthase [2] = target: T1, methionine synthase (Homo sapiens, UniProt Q99707); assay: Case report: infant with MTHFR deficiency anesthetized with nitrous oxide; assay type: in vivo; parameters: from tissue; host or cells: patient in vivo; no tissue assayed for methionine synthase; settings: infant with inherited MTHFR deficiency; two anesthetics with 60% nitrous oxide and 0.75% halothane (45 and 270 minutes)
T1 sequence (Q99707 whole entry): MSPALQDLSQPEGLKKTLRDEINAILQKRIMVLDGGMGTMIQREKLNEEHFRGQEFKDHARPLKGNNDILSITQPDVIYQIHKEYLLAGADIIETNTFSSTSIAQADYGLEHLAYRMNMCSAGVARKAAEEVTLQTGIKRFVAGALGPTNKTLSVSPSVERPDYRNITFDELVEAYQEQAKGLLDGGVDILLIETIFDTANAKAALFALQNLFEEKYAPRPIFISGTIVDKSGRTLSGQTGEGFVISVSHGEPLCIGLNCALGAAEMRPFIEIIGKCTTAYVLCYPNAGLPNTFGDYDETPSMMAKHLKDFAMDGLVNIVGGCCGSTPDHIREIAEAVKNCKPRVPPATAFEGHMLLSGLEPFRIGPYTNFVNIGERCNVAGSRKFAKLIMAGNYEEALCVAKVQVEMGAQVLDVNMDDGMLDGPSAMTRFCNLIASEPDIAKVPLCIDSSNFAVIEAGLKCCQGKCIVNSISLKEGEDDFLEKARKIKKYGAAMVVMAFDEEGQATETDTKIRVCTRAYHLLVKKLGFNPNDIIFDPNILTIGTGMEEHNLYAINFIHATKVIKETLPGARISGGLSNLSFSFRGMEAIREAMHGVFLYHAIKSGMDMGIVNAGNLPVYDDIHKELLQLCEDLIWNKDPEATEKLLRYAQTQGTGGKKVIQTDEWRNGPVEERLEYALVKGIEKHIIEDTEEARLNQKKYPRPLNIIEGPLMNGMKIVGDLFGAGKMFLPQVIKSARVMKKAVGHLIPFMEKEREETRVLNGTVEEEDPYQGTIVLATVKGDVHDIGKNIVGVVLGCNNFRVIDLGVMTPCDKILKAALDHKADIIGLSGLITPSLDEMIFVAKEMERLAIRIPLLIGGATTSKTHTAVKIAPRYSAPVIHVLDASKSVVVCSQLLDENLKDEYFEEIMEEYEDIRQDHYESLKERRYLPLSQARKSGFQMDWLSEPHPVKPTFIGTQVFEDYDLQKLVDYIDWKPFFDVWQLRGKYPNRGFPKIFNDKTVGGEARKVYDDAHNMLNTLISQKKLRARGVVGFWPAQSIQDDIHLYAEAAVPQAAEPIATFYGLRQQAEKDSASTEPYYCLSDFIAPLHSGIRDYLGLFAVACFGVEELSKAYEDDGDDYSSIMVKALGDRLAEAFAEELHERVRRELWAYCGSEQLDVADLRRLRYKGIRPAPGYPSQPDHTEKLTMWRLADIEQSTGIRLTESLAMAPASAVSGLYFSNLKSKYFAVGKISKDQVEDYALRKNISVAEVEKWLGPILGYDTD
Excerpt: A child discovered to have 5,10-methylenetetrahydrofolate reductase (MTHFR, […]) deficiency (OMIM #236250) died after two anesthetics using nitrous oxide (Beckman, D. R., et al., Birth Defects Orig. Artic. Ser. 23:47-64, 1987). MTHFR catalyzes the synthesis of 5-methyltetrahydrofolate. Sequence analysis of RNA transcripts and genomic DNA from the patient and family members, together with direct assays of fibroblast MTHFR activity, reveal that the enzyme deficiency was caused by a novel MTHFR mutation (1755→A) which changes conserved methionine 581 to an isoleucine, co-inherited with two common MTHFR polymorphisms (677C→T, 1298A→C) each associated with depressed enzyme function. (Frosst, P., et al., Nat. Genet. 10:111-3, 1995; van der Put, N. M., et al., Am. J. Hum. Genet. 62:1044-51, 1998).
The patient was normal […] when a mass was noted on the left lower extremity. Although not recognized prior to the patient's surgery, both the parent and uncle have serum total homocysteine levels >30.0 μM (normal 5.4-13.9 μM). On life-long, high dose vitamin B supplements, the proband's sibling has a homocysteine level of 4.3 μM. Neither the […] nor the sibling has received nitrous oxide. […]

methionine synthase [3] = target: methionine synthase (Mus musculus, UniProt A6H5Y3); settings: mice exposed to nitrous oxide; cited from earlier work
methionine synthase (Mus musculus, UniProt A6H5Y3), sequence (A6H5Y3 whole entry): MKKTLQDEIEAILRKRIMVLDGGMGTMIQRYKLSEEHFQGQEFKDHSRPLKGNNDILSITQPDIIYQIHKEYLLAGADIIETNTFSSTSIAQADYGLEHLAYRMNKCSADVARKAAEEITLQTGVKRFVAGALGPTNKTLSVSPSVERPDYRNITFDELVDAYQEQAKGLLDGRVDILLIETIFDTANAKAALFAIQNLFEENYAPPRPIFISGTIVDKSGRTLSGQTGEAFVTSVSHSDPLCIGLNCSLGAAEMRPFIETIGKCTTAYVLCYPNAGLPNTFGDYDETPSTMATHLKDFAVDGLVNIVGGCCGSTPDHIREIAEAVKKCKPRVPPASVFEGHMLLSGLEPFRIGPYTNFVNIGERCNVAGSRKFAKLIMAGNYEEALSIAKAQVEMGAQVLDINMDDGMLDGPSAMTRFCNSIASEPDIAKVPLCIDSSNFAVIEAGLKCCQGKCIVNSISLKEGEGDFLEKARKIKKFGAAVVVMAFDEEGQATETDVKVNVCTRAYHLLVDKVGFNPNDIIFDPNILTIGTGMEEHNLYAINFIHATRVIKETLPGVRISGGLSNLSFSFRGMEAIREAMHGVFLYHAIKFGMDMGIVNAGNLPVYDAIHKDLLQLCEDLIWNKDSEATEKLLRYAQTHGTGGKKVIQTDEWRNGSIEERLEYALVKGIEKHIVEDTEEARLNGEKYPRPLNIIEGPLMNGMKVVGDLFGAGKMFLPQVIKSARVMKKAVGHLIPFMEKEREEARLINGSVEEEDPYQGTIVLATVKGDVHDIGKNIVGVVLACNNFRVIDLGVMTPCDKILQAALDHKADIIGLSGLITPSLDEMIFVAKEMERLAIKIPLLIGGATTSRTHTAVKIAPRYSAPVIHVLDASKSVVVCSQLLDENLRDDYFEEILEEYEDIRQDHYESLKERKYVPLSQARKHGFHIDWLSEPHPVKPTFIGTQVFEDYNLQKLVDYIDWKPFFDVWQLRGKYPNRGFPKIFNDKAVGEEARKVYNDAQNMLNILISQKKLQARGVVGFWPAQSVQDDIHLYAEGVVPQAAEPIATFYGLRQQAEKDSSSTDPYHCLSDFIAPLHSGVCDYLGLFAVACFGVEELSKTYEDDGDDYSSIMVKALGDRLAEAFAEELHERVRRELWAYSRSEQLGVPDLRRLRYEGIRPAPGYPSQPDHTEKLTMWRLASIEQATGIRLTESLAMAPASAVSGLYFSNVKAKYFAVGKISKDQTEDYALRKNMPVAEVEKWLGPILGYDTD

methionine synthase [4] = settings: pigs exposed to nitrous oxide; cited from earlier work
methionine synthase [5] = target: T1, methionine synthase; settings: cited from earlier work
methionine synthase [6] = target: T1, methionine synthase; settings: recovery in cultured cells; de novo synthesis of the enzyme required to restore activity; cited from earlier work

methionine synthase (Rattus norvegicus, UniProt Q9Z2Q4), sequence (Q9Z2Q4 whole entry): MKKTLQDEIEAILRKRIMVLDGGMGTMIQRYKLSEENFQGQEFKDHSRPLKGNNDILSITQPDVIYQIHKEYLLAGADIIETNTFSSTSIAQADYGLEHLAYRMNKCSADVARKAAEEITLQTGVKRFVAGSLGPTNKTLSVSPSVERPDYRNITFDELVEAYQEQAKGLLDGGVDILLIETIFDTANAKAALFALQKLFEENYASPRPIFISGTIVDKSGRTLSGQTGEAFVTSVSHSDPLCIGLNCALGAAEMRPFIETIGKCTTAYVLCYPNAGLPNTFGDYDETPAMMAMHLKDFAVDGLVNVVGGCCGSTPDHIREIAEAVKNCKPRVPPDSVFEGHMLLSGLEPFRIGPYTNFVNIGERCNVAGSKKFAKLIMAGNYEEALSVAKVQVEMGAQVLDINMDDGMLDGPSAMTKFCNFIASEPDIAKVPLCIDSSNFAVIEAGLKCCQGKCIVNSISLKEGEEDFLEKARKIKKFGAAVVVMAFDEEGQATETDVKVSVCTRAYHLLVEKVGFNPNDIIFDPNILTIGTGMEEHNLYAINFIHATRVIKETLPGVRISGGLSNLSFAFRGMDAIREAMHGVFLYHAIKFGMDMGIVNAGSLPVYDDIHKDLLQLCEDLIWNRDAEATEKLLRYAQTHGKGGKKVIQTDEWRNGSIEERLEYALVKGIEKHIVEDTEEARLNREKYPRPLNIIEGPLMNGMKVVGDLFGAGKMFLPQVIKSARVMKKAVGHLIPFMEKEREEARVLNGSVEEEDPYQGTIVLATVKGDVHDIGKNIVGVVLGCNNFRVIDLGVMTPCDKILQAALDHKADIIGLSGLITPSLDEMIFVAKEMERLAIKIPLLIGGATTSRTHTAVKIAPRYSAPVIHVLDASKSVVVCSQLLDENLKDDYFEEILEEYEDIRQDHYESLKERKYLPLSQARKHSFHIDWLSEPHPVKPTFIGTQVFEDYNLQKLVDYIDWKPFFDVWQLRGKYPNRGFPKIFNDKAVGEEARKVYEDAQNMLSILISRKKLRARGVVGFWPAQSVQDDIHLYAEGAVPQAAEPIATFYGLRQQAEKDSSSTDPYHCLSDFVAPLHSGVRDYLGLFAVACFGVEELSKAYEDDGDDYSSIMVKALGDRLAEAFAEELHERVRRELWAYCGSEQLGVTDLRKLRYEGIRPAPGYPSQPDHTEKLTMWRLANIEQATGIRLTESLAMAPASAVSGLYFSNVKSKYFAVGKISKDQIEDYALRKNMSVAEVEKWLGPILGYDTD

In the case of `[N-]=[N+]=O` [nitrous oxide], the “delayed recovery of enzyme activity” value (methionine synthase [1]) is given as no less than 4 days, the “clinical outcome after nitrous oxide anesthesia” value (methionine synthase [2]) is given as “caused the patient's death” and the “delayed recovery of enzyme activity” value (methionine synthase [3]) is given as no less than 4 days. The “delayed recovery of enzyme activity” value (methionine synthase [4]) was no less than 4 days, the “Residual methionine synthase activity” value (methionine synthase [5]; following greater than 200 minutes of nitrous oxide administration) was “approaches zero” and the “mean half-time of inactivation of methionine synthase” value (methionine synthase [5]; nitrous oxide administration) was 46 min. The “nature of nitrous oxide-mediated inhibition” value (methionine synthase [6]) was “irreversible”.
